Experimental data from PMC5589098 (PLoS ONE, 2017).
Where two headings read alike, the source gives them in different places. Where a SMILES comes first, the peptide text is derived from it. Bridges are numbered along the chain shown (N, C = ends).

What was measured:
hNav1.7 [1] = target: T1, hNav1.7 (Homo sapiens, UniProt Q15858); assay: cell-based
hNav1.2 = hNav1.2 (Homo sapiens, UniProt Q99250); assay: cell-based
hNav1.5 = hNav1.5 (Homo sapiens, UniProt Q14524); assay: cell-based; assay type: cell-based
[2] = system: adult sheep blowflies (Lucilia cuprina); settings: in vivo
[3] = target: human (h) Cav2.2 channels in SH-SY5Y cells (Homo sapiens, UniProt Q00975); assay: cell-based
hNav1.8 = hNav1.8 (Homo sapiens, UniProt Q9Y5Y9); assay: cell-based
hNav1.3 = hNav1.3 (Homo sapiens, UniProt Q9NY46); assay: cell-based
hNav1.1 = hNav1.1 (Homo sapiens, UniProt P35498); assay: cell-based
hNav1.7 [4] = target: T1, hNav1.7; assay: cell-based; remark: listed apart in the source
hCav3.1 = hCav3.1 (Homo sapiens, UniProt O43497); assay: cell-based
C57BL/6J mice = settings: mouse, in vivo
hNav1.6 = hNav1.6 (Homo sapiens, UniProt Q9UQD0); assay: cell-based; assay type: cell-based
hNav1.4 = hNav1.4 (Homo sapiens, UniProt P35499); assay: cell-based; assay type: cell-based
hCav1.3 = hCav1.3 (Homo sapiens, UniProt Q01668); assay: cell-based
[5] = target: rat (r) Cav2.2 (Cav α1b + Cav β1b + Cav α2δ) (Rattus norvegicus, UniProt Q02294); assay: cell-based
[6] = system: Nav1.7-mediated pain in C57BL/6J mice; settings: mouse, in vivo

T1 sequence (Q15858 whole entry): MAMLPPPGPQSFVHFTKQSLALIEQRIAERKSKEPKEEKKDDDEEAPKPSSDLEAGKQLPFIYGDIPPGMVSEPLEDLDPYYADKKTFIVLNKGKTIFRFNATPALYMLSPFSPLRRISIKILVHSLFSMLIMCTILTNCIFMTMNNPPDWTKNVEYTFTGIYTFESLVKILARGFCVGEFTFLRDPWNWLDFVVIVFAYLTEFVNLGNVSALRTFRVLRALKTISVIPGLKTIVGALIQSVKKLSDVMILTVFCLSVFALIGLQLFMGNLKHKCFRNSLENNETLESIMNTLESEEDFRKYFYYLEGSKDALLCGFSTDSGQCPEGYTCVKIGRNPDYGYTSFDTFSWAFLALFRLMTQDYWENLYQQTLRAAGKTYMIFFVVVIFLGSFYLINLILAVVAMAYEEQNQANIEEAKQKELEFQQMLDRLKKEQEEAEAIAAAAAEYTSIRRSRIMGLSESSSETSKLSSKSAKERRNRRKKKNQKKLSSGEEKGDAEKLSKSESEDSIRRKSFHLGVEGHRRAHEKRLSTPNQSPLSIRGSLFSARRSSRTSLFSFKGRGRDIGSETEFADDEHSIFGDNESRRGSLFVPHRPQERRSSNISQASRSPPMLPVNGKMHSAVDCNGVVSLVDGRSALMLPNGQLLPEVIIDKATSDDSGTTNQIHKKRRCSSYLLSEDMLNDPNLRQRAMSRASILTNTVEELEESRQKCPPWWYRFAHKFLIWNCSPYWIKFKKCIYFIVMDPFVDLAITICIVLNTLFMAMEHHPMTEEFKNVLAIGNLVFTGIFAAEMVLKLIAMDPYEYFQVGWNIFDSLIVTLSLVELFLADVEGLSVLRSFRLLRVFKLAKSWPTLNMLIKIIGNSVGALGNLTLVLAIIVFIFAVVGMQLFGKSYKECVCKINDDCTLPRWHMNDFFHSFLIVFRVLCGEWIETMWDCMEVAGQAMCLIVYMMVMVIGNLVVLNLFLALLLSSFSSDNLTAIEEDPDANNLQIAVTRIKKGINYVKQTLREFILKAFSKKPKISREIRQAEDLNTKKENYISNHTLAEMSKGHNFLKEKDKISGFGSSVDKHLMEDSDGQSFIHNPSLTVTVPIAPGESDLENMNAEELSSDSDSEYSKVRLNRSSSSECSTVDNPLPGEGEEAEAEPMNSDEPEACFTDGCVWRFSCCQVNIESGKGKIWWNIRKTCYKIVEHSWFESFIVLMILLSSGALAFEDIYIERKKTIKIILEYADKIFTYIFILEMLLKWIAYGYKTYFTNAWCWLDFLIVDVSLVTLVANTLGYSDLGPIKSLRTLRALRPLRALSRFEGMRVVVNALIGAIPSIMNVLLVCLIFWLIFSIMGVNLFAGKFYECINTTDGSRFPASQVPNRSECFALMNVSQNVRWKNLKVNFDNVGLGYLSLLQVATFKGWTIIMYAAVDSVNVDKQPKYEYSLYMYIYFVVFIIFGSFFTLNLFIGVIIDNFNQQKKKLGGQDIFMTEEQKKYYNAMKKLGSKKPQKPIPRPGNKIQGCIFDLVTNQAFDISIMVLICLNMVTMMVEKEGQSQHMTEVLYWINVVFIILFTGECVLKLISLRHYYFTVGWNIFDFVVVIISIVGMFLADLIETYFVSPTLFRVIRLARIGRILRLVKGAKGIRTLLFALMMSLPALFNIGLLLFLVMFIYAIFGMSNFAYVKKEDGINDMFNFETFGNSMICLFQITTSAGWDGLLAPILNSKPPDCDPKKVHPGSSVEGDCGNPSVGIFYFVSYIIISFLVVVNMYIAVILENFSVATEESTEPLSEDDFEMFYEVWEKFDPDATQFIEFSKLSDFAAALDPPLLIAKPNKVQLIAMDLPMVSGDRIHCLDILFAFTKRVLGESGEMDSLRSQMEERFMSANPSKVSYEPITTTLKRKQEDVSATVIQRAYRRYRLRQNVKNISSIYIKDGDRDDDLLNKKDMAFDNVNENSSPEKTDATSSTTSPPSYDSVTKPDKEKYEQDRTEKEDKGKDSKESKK
T1 sequence (Q07699 19-218, further chain): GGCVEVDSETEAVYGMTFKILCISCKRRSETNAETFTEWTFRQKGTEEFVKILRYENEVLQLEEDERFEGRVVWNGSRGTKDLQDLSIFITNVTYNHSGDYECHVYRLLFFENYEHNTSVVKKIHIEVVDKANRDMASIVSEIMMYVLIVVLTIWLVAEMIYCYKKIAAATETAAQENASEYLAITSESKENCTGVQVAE
Chain of hNav1.5 (Q14524 whole entry): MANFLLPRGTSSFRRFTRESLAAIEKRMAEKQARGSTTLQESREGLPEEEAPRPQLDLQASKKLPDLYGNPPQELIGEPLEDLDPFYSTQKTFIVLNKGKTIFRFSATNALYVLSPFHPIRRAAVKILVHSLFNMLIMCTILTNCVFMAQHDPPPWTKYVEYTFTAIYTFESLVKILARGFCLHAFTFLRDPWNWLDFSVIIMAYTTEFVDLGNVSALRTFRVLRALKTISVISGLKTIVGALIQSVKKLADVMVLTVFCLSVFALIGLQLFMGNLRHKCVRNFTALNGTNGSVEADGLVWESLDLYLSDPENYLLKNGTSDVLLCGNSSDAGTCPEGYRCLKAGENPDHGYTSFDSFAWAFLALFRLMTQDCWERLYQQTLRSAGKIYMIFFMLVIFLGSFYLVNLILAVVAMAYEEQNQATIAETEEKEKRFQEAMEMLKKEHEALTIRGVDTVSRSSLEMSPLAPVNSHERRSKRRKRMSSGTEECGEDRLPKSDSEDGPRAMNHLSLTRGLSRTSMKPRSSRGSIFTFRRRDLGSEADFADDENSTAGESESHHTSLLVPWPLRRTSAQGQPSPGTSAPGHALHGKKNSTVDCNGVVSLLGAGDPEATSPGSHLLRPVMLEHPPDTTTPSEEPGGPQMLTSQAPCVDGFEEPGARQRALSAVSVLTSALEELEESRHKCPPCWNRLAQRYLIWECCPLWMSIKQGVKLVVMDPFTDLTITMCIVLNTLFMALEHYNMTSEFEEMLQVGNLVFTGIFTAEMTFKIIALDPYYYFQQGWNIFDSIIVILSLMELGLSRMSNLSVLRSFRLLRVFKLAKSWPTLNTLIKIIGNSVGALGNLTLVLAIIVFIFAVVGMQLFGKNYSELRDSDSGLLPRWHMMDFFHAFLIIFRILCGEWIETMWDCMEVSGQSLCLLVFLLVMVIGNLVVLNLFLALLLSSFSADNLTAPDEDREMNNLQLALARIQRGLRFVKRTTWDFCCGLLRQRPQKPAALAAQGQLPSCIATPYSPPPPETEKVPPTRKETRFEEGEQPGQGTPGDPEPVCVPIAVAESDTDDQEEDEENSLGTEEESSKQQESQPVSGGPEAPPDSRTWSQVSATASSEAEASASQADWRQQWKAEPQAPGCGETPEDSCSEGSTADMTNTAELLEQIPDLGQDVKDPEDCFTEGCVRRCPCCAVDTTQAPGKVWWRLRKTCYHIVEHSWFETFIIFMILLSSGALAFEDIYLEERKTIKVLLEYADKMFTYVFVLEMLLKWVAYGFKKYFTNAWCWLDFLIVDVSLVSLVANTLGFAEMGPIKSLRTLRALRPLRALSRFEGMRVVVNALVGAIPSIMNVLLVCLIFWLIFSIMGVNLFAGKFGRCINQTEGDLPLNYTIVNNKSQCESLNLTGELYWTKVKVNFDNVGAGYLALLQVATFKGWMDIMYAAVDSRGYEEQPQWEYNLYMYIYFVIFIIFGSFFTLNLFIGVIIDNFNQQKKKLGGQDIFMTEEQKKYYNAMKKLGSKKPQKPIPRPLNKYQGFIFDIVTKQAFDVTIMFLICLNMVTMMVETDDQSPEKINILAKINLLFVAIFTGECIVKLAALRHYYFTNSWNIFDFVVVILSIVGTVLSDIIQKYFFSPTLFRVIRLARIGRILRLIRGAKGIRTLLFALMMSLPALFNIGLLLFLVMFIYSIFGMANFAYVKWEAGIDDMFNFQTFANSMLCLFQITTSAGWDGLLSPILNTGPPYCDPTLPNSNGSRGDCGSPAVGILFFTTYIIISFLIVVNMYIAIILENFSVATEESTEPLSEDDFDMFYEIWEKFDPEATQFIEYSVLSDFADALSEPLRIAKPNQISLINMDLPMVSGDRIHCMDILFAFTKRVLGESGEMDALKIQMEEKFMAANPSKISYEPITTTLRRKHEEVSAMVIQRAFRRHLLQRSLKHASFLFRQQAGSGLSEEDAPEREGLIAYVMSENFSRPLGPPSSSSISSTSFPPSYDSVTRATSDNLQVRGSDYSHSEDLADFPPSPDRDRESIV

Structure (SMILES) | IC50 (hNav1.7 [1]) | IC50 (hNav1.2) | IC50 (hNav1.5) | IC50 [3] | IC50 (hNav1.8) | IC50 (hNav1.3) | IC50 (hNav1.1) | activity at Cav3.1 (hCav3.1) | ataxia index (number of foot slips/meters travelled) (C57BL/6J mice) | side effects (C57BL/6J mice) | IC50 (hNav1.6) | activity at Cav1.3 (hCav1.3) | other results
CC(C)C[C@H](NC(=O)[C@H](CC(=O)O)NC(=O)[C@H](Cc1ccc(O)cc1)NC(=O)[C@H](CCCCN)NC(=O)[C@@H]1CSSC[C@@H]2NC(=O)[C@H](CCCCN)NC(=O)[C@H](CC(=O)O)NC(=O)[C@H](CC(N)=O)NC(=O)[C@H](CCCCN)NC(=O)[C@@H]3CCCN3C(=O)[C@H](CC(=O)O)NC(=O)[C@@H]3CSSC[C@H](NC(=O)[C@H](CO)NC(=O)[C@H](Cc4ccc(O)cc4)NC(=O)[C@H](CC(N)=O)NC(=O)[C@H](CCCCN)NC(=O)[C@H](CSSC[C@H](NC(=O)[C@@H](N)CC(=O)O)C(=O)N[C@@H](CC(C)C)C(=O)NCC(=O)N[C@@H](Cc4c[nH]c5ccccc45)C(=O)N[C@@H](Cc4ccccc4)C(=O)N[C@@H](CCCCN)C(=O)N[C@@H](CO)C(=O)N3)NC2=O)C(=O)N[C@@H](CO)C(=O)N[C@@H](CCCNC(=N)N)C(=O)N[C@@H](CCCNC(=N)N)C(=O)N[C@@H](CC(=O)O)C(=O)N[C@@H](CCCNC(=N)N)C(=O)N[C@@H](Cc2c[nH]c3ccccc23)C(=O)N1)C(N)=O [Cd1a] (H-DCLGWFKSCDPKNDKCCKNYSCSRRDRWCKYDL-NH2; disulfide 2-17, 9-22, 16-29) | 3.34 ± 1.56 µM | 0.13 ± 0.04 µM | > 30 µM | 2.6 µM | 6.92 ± 3.44 µM | > 30 µM | 2.18 ± 0.69 µM | inactive | no significant effect | did not produce any apparent side effects | > 30 µM | inactive | IC50 at Nav1.5 (hNav1.5): inactive; paralysis or lethality at 24 h [2]: No signs of paralysis or lethality; recovery from paralysis [2]: all flies fully recovered; enhanced recovery from inhibition by strong positive-depolarising pulse (hNav1.7 [4]): ~ 70%; IC50 (hNav1.7 [4]; n = 10, read-out: IC50 at hNav1.7 (peak current)): 0.016 µM; IC50 (hCav3.1): > 30 µM; IC50 at Nav1.6 (hNav1.6): inactive; IC50 (hNav1.4): > 30 µM; IC50 at Nav1.4 (hNav1.4): inactive; IC50 (hCav1.3): > 30 µM; IC50 [5]: 3 µM; inhibition at 3 µM ([5]; TS/A, 3 μM, n = 9, read-out: inhibition of rCav2.2 currents): ~50%
CC(C)C[C@H](NC(=O)[C@H](CC(=O)O)NC(=O)[C@H](Cc1ccc(O)cc1)NC(=O)[C@H](CCCCN)NC(=O)[C@@H]1CSSC[C@@H]2NC(=O)[C@H](CCCCN)NC(=O)[C@H](CC(=O)O)NC(=O)[C@H](CC(N)=O)NC(=O)[C@H](CCCCN)NC(=O)[C@@H]3CCCN3C(=O)[C@H](CC(=O)O)NC(=O)[C@@H]3CSSC[C@H](NC(=O)[C@H]([C@@H](C)O)NC(=O)[C@H](Cc4ccc(O)cc4)NC(=O)[C@H](CC(N)=O)NC(=O)[C@H](CCCCN)NC(=O)[C@H](CSSC[C@H](NC(=O)[C@@H](N)CC(=O)O)C(=O)N[C@@H](CC(C)C)C(=O)NCC(=O)N[C@@H](Cc4c[nH]c5ccccc45)C(=O)N[C@@H](Cc4ccccc4)C(=O)N[C@@H](CCCCN)C(=O)N[C@@H](CO)C(=O)N3)NC2=O)C(=O)N[C@@H](CO)C(=O)N[C@@H](CCCNC(=N)N)C(=O)N[C@@H](CCCNC(=N)N)C(=O)N[C@@H](CC(=O)O)C(=O)N[C@@H](CCCNC(=N)N)C(=O)N[C@@H](Cc2c[nH]c3ccccc23)C(=O)N1)C(N)=O [Cm1a] (H-DCLGWFKSCDPKNDKCCKNYTCSRRDRWCKYDL-NH2; disulfide 2-17, 9-22, 16-29) | 5.12 ± 2.85 µM |  | > 10 µM | 0.4 ± 0.2 µM | > 10 µM | > 10 µM | 1.06 ± 0.32 µM | inactive |  | did not produce any apparent side effects | > 10 µM | inactive | IC50 (hNav1.2; read-out: IC50 at Nav1.2): 0.07 µM
CC(C)C[C@H](NC(=O)[C@H](Cc1ccc(O)cc1)NC(=O)[C@H](Cc1ccc(O)cc1)NC(=O)[C@H](CCCCN)NC(=O)[C@@H]1CSSC[C@@H]2NC(=O)[C@H](CCCCN)NC(=O)[C@H](CC(=O)O)NC(=O)[C@H](CC(N)=O)NC(=O)[C@H](CCCCN)NC(=O)[C@@H]3CCCN3C(=O)[C@H](CC(=O)O)NC(=O)[C@@H]3CSSC[C@H](NC(=O)[C@H]([C@@H](C)O)NC(=O)[C@H](Cc4ccc(O)cc4)NC(=O)[C@H](CC(N)=O)NC(=O)[C@H](CCCCN)NC(=O)[C@H](CSSC[C@H](NC(=O)[C@@H](N)CC(=O)O)C(=O)N[C@@H](CC(C)C)C(=O)NCC(=O)N[C@@H](Cc4c[nH]c5ccccc45)C(=O)N[C@@H](Cc4ccccc4)C(=O)N[C@@H](CCCCN)C(=O)N[C@@H](CO)C(=O)N3)NC2=O)C(=O)N[C@@H](CO)C(=O)N[C@@H](CCCNC(=N)N)C(=O)N[C@@H](CCCNC(=N)N)C(=O)N[C@@H](CC(=O)O)C(=O)N[C@@H](CCCNC(=N)N)C(=O)N[C@@H](Cc2c[nH]c3ccccc23)C(=O)N1)C(N)=O [Cm1b] (H-DCLGWFKSCDPKNDKCCKNYTCSRRDRWCKYYL-NH2; disulfide 2-17, 9-22, 16-29) | 0.23 ± 0.13 µM | 0.08 ± 0.02 µM | > 10 µM | 1.1 ± 0.6 µM | > 10 µM | 5.57 ± 0.04 µM | 0.17 ± 0.11 µM | inactive |  | did not produce any apparent side effects | 3.99 ± 1.6 µM | inactive | 
NC1=N[C@H](O)[C@H]2[C@H]3O[C@]4(O)O[C@@H]([C@@H](O)[C@@]2(N1)[C@@H]4O)[C@]3(O)CO [TTX, tetrodotoxin] |  |  |  |  |  |  |  |  | significantly increased the ataxia index (*p < 0.05) |  |  |  | reversal of OD1-evoked pain behaviours [6]: fully reversed
